Data: patent US20100137313A1 (ASTRAZENECA AB, priority 2008, published 2010)

Biological target: S. pneumoniae Topoisomerase IV ATPase (ParE) (Streptococcus pneumoniae serotype 4, UniProt Q59961)
Assay: S. pneumoniae Topoisomerase IV ATPase inhibition
Assay type: biochemical
Details: values marked * are an average of two or more data points, read-out: % Inh (13 μM) of S. pneumoniae Topoisomerase IV ATPase
Method in brief: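 Malachite green/ammonium molybdate phosphate detection, A650. 1.25 nM ParE, 160 μM ATP, sheared salmon sperm DNA 5 μg/ml, 20 mM Tris pH 8.0, 8.0 mM MgCl2. Controls: 2% DMSO = 0%, 20 μM EDTA = 100% inhibition; IC50 over 10 concentrations.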

Chain of S. pneumoniae Topoisomerase IV ATPase (ParE) (Q59961 whole entry): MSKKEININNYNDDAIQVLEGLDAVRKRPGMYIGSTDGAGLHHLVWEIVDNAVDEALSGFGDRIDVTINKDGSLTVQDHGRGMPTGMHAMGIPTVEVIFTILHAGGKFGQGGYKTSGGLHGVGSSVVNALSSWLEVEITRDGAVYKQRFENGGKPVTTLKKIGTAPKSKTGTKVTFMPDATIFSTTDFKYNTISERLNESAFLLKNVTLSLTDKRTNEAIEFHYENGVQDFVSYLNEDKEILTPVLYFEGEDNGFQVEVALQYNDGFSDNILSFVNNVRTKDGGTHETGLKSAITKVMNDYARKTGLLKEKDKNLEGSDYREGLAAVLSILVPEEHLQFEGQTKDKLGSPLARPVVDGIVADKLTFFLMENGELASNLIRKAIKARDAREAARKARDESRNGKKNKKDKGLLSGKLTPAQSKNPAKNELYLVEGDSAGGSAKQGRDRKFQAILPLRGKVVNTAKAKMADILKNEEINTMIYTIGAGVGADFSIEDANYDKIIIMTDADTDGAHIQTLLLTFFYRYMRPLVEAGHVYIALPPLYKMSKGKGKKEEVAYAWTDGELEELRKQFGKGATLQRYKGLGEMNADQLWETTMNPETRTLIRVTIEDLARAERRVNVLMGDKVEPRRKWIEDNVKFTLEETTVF

SMILES | inhibition at 13 µM [%]
CONC(=O)c1cncc(-c2cnc(Nc3ccc(F)c(Cl)c3)nc2NCCc2c[nH]cn2)c1 [Example 475, 5-(2-[(3-chloro-4-fluorophenyl)amino]-4-{[2-(1H-imidazol-4-yl)ethyl]amino}pyrimidin-5-yl)-N-methoxypyridine-3-carboxamide] | 93
CONC(=O)c1cncc(-c2cnc(Nc3ccc(F)c(Cl)c3)nc2NCCc2cccnc2)c1 [Example 476, 5-(2-[(3-chloro-4-fluorophenyl)amino]-4-{[2-(pyridin-3-yl)ethyl]amino}pyrimidin-5-yl)-N-methoxypyridine-3-carboxamide] | 100
CONC(=O)c1cncc(-c2cnc(Nc3ccc(F)c(Cl)c3)nc2NCCc2ccncc2)c1 [Example 477, 5-(2-[(3-chloro-4-fluorophenyl)amino]-4-{[2-(pyridin-4-yl)ethyl]amino}pyrimidin-5-yl)-N-methoxypyridine-3-carboxamide] | 100
O=C(O)CCC(=O)Nc1ccc(-c2cnc(Nc3ccc(F)c(Cl)c3)nc2N2CCOCC2)cc1 [Example 478, 4-[(4-{2-[(3-chloro-4-fluorophenyl)amino]-4-(morpholin-4-yl)pyrimidin-5-yl}phenyl)amino]-4-oxobutanoic acid] | 100
O=C(O)CCC(=O)Nc1cccc(-c2cnc(Nc3ccc(F)c(Cl)c3)nc2N2CCOCC2)c1 [Example 482, 4-[(3-{2-[(3-chloro-4-fluorophenyl)amino]-4-(morpholin-4-yl)pyrimidin-5-yl}phenyl)amino]-4-oxobutanoic acid] | 99
O=C(O)c1cc(-c2cnc(Nc3ccc(F)c(Cl)c3)nc2N2CCOCC2)cs1 [Example 483, 4-{2-[(3-chloro-4-fluorophenyl)amino]-4-(morpholin-4-yl)pyrimidin-5-yl}thiophene-2-carboxylic acid] | 66
O=C(O)Cn1cc(-c2cnc(Nc3ccc(F)c(Cl)c3)nc2N2CCOCC2)cn1 [Example 485, (4-{2-[(3-chloro-4-fluorophenyl)amino]-4-(morpholin-4-yl)pyrimidin-5-yl}-1H-pyrazol-1-yl)acetic acid] | 85
O=C(O)c1cccc(-c2cnc(Nc3ccc(F)c(Cl)c3)nc2N2CCOCC2)c1 [Example 487, 3-{2-[(3-chloro-4-fluorophenyl)amino]-4-(morpholin-4-yl)pyrimidin-5-yl}benzoic acid] | 84
O=C(O)COc1cccc(-c2cnc(Nc3ccc(F)c(Cl)c3)nc2N2CCOCC2)c1 [Example 488, (3-{2-[(3-chloro-4-fluorophenyl)amino]-4-(morpholin-4-yl)pyrimidin-5-yl}phenoxy)acetic acid] | 92
O=C(O)COc1ccc(-c2cnc(Nc3ccc(F)c(Cl)c3)nc2N2CCOCC2)cc1 [Example 489, (4-{2-[(3-chloro-4-fluorophenyl)amino]-4-(morpholin-4-yl)pyrimidin-5-yl}phenoxy)acetic acid] | 97
O=C(O)c1cc(-c2cnc(Nc3ccc(F)c(Cl)c3)nc2N2CCOCC2)cc([N+](=O)[O-])c1 [Example 490, 3-{2-[(3-chloro-4-fluorophenyl)amino]-4-(morpholin-4-yl)pyrimidin-5-yl}-5-nitrobenzoic acid] | 100
Nc1cc(C(=O)O)cc(-c2cnc(Nc3ccc(F)c(Cl)c3)nc2N2CCOCC2)c1 [Example 491, 3-amino-5-{2-[(3-chloro-4-fluorophenyl)amino]-4-(morpholin-4-yl)pyrimidin-5-yl}benzoic acid] | 87
O=C(O)c1cc(-c2cnc(Nc3ccc(F)c(Cl)c3)nc2N2CCOCC2)ccn1 [Example 493, 4-{2-[(3-chloro-4-fluorophenyl)amino]-4-(morpholin-4-yl)pyrimidin-5-yl}pyridine-2-carboxylic acid] | 9
NC(=O)c1cc(-c2cnc(Nc3ccc(F)c(Cl)c3)nc2-n2ccc(C(F)(F)F)n2)ccn1 [Example 496, 4-{2-[(3-chloro-4-fluorophenyl)amino]-4-[3-(trifluoromethyl)-1H-pyrazol-1-yl]pyrimidin-5-yl}pyridine-2-carboxamide] | 100
Fc1ccc(Nc2ncc(-c3nc4ccccc4[nH]3)c(N3CCOCC3)n2)cc1Cl [Example 497, 5-(1H-benzimidazol-2-yl)-N-(3-chloro-4-fluorophenyl)-4-(morpholin-4-yl)pyrimidin-2-amine] | 61
COCCCNc1nc(Nc2ccc(F)c(Cl)c2)ncc1-c1nc(-c2ccc(C#N)cc2)cs1 [Example 498, 4-(2-{2-[(3-chloro-4-fluorophenyl)amino]-4-[(3-methoxypropyl)amino]pyrimidin-5-yl}-1,3-thiazol-4-yl)benzonitrile] | 41

SMILES | inhibition at 13 µM [%]
COCCCNc1nc(Nc2ccc(F)c(Cl)c2)ncc1-c1nc(-c2cccnc2)cs1 [Example 499, N^2-(3-chloro-4-fluorophenyl)-N^4-(3-methoxypropyl)-5-[4-(pyridin-3-yl)-1,3-thiazol-2-yl]pyrimidine-2,4-diamine] | 34
COCCCNc1nc(Nc2ccc(F)c(Cl)c2)ncc1-c1nc(-c2ccncc2)cs1 [Example 500, N^2-(3-chloro-4-fluorophenyl)-N^4-(3-methoxypropyl)-5-[4-(pyridin-4-yl)-1,3-thiazol-2-yl]pyrimidine-2,4-diamine] | 83
COCCCNc1nc(Nc2ccc(F)c(Cl)c2)ncc1-c1nc(-c2nccs2)cs1 [Example 502, 5-(2,4′-bi-1,3-thiazol-2′-yl)-N^2-(3-chloro-4-fluorophenyl)-N^4-(3-methoxypropyl)pyrimidine-2,4-diamine] | 10
COCCCNc1nc(Nc2ccc(F)c(Cl)c2)ncc1-c1nc(-c2cnoc2C)cs1 [Example 503, N^2-(3-chloro-4-fluorophenyl)-N^4-(3-methoxypropyl)-5-[4-(5-methylisoxazol-4-yl)-1,3-thiazol-2-yl]pyrimidine-2,4-diamine] | 147
COCCCNc1nc(Nc2ccc(F)c(Cl)c2)ncc1-c1nc(-c2cncn2C)cs1 [Example 504, N^2-(3-chloro-4-fluorophenyl)-N^4-(3-methoxypropyl)-5-[4-(1-methyl-1H-imidazol-5-yl)-1,3-thiazol-2-yl]pyrimidine-2,4-diamine] | 83
COCCCNc1nc(Nc2ccc(F)c(Cl)c2)ncc1-c1nc(C)c(C(=O)OC)s1 [Example 505, methyl 2-{2-[(3-chloro-4-fluorophenyl)amino]-4-[(3-methoxypropyl)amino]pyrimidin-5-yl}-4-methyl-1,3-thiazole-5-carboxylate] | 19
CCOC(=O)c1sc(-c2cnc(Nc3ccc(F)c(Cl)c3)nc2NCCCOC)nc1-c1ccccc1 [Example 506, ethyl 2-{2-[(3-chloro-4-fluorophenyl)amino]-4-[(3-methoxypropyl)amino]pyrimidin-5-yl}-4-phenyl-1,3-thiazole-5-carboxylate] | 33
CCOC(=O)c1sc(-c2cnc(Nc3ccc(F)c(Cl)c3)nc2NCCCOC)nc1-c1ccccn1 [Example 507, ethyl 2-{2-[(3-chloro-4-fluorophenyl)amino]-4-[(3-methoxypropyl)amino]pyrimidin-5-yl}-4-(pyridin-2-yl)-1,3-thiazole-5-carboxylate] | 74
CCOC(=O)c1sc(-c2cnc(Nc3ccc(F)c(Cl)c3)nc2NCCCOC)nc1-c1ccn(C)n1 [Example 508, ethyl 2-{2-[(3-chloro-4-fluorophenyl)amino]-4-[(3-methoxypropyl)amino]pyrimidin-5-yl}-4-(1-methyl-1H-pyrazol-3-yl)-1,3-thiazole-5-carboxylate] | 0
COCCCNc1nc(Nc2ccc(F)c(Cl)c2)ncc1-c1nc(C)c(C(=O)O)s1 [Example 509, 2-{2-[(3-chloro-4-fluorophenyl)amino]-4-[(3-methoxypropyl)amino]pyrimidin-5-yl}-4-methyl-1,3-thiazole-5-carboxylic acid] | 100
COCCCNc1nc(Nc2ccc(F)c(Cl)c2)ncc1-c1nc(-c2ccccc2)c(C(=O)O)s1 [Example 510, 2-{2-[(3-chloro-4-fluorophenyl)amino]-4-[(3-methoxypropyl)amino]pyrimidin-5-yl}-4-phenyl-1,3-thiazole-5-carboxylic acid] | 97
COCCCNc1nc(Nc2ccc(F)c(Cl)c2)ncc1-c1nc(-c2ccccn2)c(C(=O)O)s1 [Example 511, 2-{2-[(3-chloro-4-fluorophenyl)amino]-4-[(3-methoxypropyl)amino]pyrimidin-5-yl}-4-(pyridin-2-yl)-1,3-thiazole-5-carboxylic acid] | 100
COCCCNc1nc(Nc2ccc(F)c(Cl)c2)ncc1-c1nc(-c2ccn(C)n2)c(C(=O)O)s1 [Example 512, 2-{2-[(3-chloro-4-fluorophenyl)amino]-4-[(3-methoxypropyl)amino]pyrimidin-5-yl}-4-(1-methyl-1H-pyrazol-3-yl)-1,3-thiazole-5-carboxylic acid] | 100
O=C(O)/C=C/c1cccc(-c2cnc(Nc3ccc(F)c(CO)c3)nc2N2CCOCC2)c1 [Example 516, (2E)-3-{3-[2-{[4-fluoro-3-(hydroxymethyl)phenyl]amino}-4-(morpholin-4-yl)pyrimidin-5-yl]phenyl}prop-2-enoic acid] | 98
O=C(O)/C=C/c1cccc(-c2cnc(Nc3cccc4cc[nH]c34)nc2N2CCOCC2)c1 [Example 517, (2E)-3-{3-[2-(1H-indol-7-ylamino)-4-(morpholin-4-yl)pyrimidin-5-yl]phenyl}prop-2-enoic acid] | 100
Cc1cc(-c2nccs2)nn1-c1nc(Nc2ccc(F)c(Cl)c2)ncc1-c1cncc(C(=O)O)c1 [Example 529, 5-{2-[(3-chloro-4-fluorophenyl)amino]-4-[5-methyl-3-(1,3-thiazol-2-yl)-1H-pyrazol-1-yl]pyrimidin-5-yl}pyridine-3-carboxylic acid] | 100
